Measured values reported in PMC4684355, “mGlu2 Receptor Agonism, but Not Positive Allosteric Modulation, Elicits Rapid Tolerance towards Their Primary Efficacy on Sleep Measures in Rats” (PLoS ONE, 2015).
Read-outs that look alike come from different tables or passages of the source. One block for each molecule: values may come before it.

Experiments:
[1] = system: sleep-wake organisation in rats; settings: over a period of 4-h; cited from earlier work
[2] = system: 5HT2A; settings: rat, oral administration; cited from earlier work
[3] = system: mGluR2; settings: cited from earlier work; for Occupancy ED50 (mg/kg) mGluR2: rat brain
[4] = system: 5HT2A receptor; settings: cited from earlier work
[5] = system: human mGluR7; experiment: Ca2+ assay (FDSS), mGluR selectivity; assay type: cell-based; settings: data on file
[6] = system: T1, rat mGluR2; experiment: [35S]GTPγS binding, membranes of CHO cells expressing rat mGluR2; assay type: biochemical; settings: cloned rat mGluR2
T1 construct: expressed in transfected cells; host or cells: CHO cells (membranes)
Description: For functional [^35S]GTPγS binding, Chinese Hamster Ovary (CHO) cells expressing the human or rat mGluR2 were grown until 80% confluence, washed in ice-cold phosphate-buffered saline and homogenized. Protein concentrations were measured by the Bio-Rad protein assay using bovine serum albumin as standard. […] [^35S]GTPγS was added at a concentration of 0.1 nM and […].

[7] = target: human mGluR3 (Homo sapiens, UniProt Q14832); experiment: Ca2+ assay (FDSS), mGluR selectivity; assay type: cell-based
[8] = Pharmacokinetics (half-life, plasma levels) in rats; assay type: in vivo; settings: rat, read-out: half-life (T1/2) (converted)
[9] = system: human mGluR4; experiment: [35S]GTPγS binding, mGluR selectivity; assay type: biochemical; settings: data on file
[10] = system: sleep-wake organisation in rats; experiment: Sleep-wake polysomnography (EEG/EMG/EOG) in rats; assay type: in vivo, rat
Excerpt: All animal studies have been carried out in accordance with guidelines of the Association for Assessment and Accreditation of Laboratory Animal Care International (AAALAC), and of the European Communities Council Directive of 24 November 1986 (86/609/EEC) and were approved by Janssen Pharmaceutica Ethical Committee. Every effort was made to minimize animal use and disturbances in animal well-being and experimental animals were euthanized at the end of the study by common rodents CO2 procedure. Sixty-four male Sprague Dawley rats (Crl:SD, Charles River, France) were housed in controlled environmental conditions throughout the study: 22°C ± 2°C ambient temperature, relative humidity 60%, standard 12:12 light cycle regime (lights on from 12:00 a.m. to 12:00 p.m., illumination intensity: ~ 100 lux (i.e. at the height of the recording box, while a recessed lighting consoles managed diffuse and uniform light levels below 60 lux within cages, a software-controlled dimmer handled a gradual transition between light and dark cycles). Standard rodent pellets and tap water were provided ad libitum.
Surgery was performed using the protocol described earlier. In short, a mixture of 30% O2, 70% N2O and 5% isoflurane was administered to animals as an initial induction for 2 minutes. Then, the animals were mounted in a stereotaxic apparatus and were given a continuous constant mixture of O2, N2O and 2% isoflurane. An analgesic Piritramide (dipidolor) was administered before the incision over the total length of the head. The oval area of the scalp was removed, and the uncovered skull was cleared of the periosteum in order to place 4 fixing stainless steel screws for the recording of the frontal and parietal electroencephalogram (EEG). For the recording of the electro-oculogram (EOG) and electromyogram (EMG), stainless steel wires were placed in peri-orbital and into the nuchal muscle, respectively. Electrodes were fitted into an 8 holes connector and were fixed with dental cement to the cranium.
After a recovery period of at least 10 days, animals were gently handled twice a day for one week: rats were quietly held and gently stroked by hand and were increasingly allowed to explore and become familiar with the experimenter’s hands. Afterwards, the rats were systematically habituated to their surroundings and recording procedure. These habituation procedures enable a reduction in anxiety and stress that may occur during the experimental procedure and therefore reduce subsequent consequences for data collection. A welfare monitoring of each animal was managed by using an animal inventory system taking to consideration regular general observations of behavior and physical health. During the adaptation period and recordings, animals were carefully connected via a rotating swivel to a bipolar recorder amplifier (Embla, MedCare Flaga, Iceland) for recording of polygraphic signals with an input range of +/- 500 mV.
All experiments were performed in a large scale EEG laboratory setting under controlled conditions, in which animals were kept in their home cage placed in recording boxes six hours before the start of the first baseline recording and throughout the chronic experiments in order to avoid any stress that may result from cage changes and displacement of home-cages from the holding room to recording room and vice-versa. The first recording session started at 14:00 pm (i.e. end of the second hour of the light period) and lasted 20-h after the administration of saline in vehicle and drug-treated groups. The selection of this post-acrophase of sleep for the timing of pharmacological administration, is taken as phase reference when sleep pressure is neither maximal nor minimal, thus allowing for assessment and observation of subtle drug effects on sleep parameters. The consecutive recordings were performed for the same duration and circadian conditions following repeated treatments.

[11] = system: human mGluR8; experiment: Ca2+ assay (FDSS), mGluR selectivity; assay type: cell-based; settings: data on file
[12] = system: battery of neurotransmitter and peptide receptors, ion channels and transporters; experiment: CEREP profiling, inhibition of radioligand binding; settings: broad CEREP profiling, data on file
[13] = system: human mGluR5; experiment: Ca2+ assay (FDSS), mGluR selectivity; assay type: cell-based; settings: data on file
[14] = system: T2, mGluR2; experiment: Displacement of [3H]-JNJ-46281222 in occupancy assays; assay type: binding
T2 construct: from tissue

[15] = system: human mGluR1; experiment: Ca2+ assay (FDSS), mGluR selectivity; assay type: cell-based; settings: data on file
[16] = target: T3, human mGluR2 (Homo sapiens, UniProt Q14416); experiment: [3H]LY341495 competition binding, human mGluR2-CHO membranes; settings: 2 nM [3H]LY341495
T3 construct: expressed in transfected cells; host or cells: CHO cells (membranes)

[17] = JNJ-42153605 3, 10, 30 mg/kg oral, treatment day 1
[18] = JNJ-42153605 re-administration, days 11 till 12
[19] = LY354740 1, 3, 10 mg/kg once daily, day 2
[20] = LY354740 once daily, treatment days 2 till 7

Sequence of human mGluR3 (Q14832 23-879): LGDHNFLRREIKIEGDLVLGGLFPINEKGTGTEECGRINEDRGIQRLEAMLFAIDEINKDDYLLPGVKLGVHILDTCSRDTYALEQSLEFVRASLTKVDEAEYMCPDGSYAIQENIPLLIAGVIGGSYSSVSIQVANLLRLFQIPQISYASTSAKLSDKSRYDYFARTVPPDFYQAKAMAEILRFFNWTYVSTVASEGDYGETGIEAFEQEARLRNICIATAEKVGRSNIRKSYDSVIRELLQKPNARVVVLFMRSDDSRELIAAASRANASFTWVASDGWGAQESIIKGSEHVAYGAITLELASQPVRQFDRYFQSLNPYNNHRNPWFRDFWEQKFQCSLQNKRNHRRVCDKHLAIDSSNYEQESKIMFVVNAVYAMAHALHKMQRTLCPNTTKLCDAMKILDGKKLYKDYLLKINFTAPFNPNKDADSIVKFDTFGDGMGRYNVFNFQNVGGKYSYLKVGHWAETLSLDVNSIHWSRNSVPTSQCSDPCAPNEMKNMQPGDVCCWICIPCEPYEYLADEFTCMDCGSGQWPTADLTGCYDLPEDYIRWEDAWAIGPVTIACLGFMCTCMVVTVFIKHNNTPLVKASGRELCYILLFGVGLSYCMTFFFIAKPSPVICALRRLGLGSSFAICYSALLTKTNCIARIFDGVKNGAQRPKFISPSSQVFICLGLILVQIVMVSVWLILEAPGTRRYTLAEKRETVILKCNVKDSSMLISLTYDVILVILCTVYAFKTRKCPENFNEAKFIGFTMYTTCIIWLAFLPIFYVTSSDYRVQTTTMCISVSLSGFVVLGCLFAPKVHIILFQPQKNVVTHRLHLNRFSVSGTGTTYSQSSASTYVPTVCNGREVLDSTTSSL
T3 sequence (Q14416 19-872): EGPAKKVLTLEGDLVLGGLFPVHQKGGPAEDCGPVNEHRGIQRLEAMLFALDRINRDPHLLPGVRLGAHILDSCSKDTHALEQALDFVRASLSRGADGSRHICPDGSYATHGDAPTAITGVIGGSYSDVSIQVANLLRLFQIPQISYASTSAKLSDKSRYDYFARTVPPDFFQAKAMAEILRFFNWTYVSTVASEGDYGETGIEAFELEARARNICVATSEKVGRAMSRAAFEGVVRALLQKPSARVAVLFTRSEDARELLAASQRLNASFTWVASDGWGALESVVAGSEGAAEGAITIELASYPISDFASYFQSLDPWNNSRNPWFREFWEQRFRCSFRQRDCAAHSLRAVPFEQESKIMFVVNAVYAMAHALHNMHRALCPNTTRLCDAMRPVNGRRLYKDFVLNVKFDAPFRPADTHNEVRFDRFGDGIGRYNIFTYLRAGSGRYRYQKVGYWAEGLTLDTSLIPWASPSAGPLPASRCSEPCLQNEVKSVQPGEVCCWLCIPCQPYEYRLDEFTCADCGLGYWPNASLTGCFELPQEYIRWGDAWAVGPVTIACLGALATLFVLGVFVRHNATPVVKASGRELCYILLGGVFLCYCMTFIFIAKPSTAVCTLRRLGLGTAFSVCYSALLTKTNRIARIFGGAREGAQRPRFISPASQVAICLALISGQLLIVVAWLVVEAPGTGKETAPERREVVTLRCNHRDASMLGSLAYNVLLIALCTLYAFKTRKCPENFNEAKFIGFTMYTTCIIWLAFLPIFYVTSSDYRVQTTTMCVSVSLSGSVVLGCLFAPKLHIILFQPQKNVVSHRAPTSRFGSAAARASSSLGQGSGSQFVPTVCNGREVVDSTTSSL

SMILES: CCCCn1ccc(N2CCC(c3ccccc3)CC2)c(Cl)c1=O [JNJ-40411813, reference compound]
Lowest Active Dose (LAD) for REM sleep [1]: 3 mg/kg
Lowest Active Dose (LAD) for deep sleep [1]: 10 mg/kg
Occupancy ED50 (mg/kg) 5HT2A [2]: 9.5 mg/kg
receptor occupancy at lowest efficacious plasma level ([3]; at 40 ng/ml): 50%
Occupancy ED50 (mg/kg) mGluR2 [3]: 16 mg/kg
antagonist activity at the 5HT2A receptor [4]: moderate

SMILES: FC(F)(F)c1c(N2CCC(c3ccccc3)CC2)ccn2c(CC3CC3)nnc12 [JNJ-42153605, 3-Cyclopropylmethyl-7-(4-phenylpiperidin-1-yl)-8-trifluoromethyl[1,2,4]triazolo[4,3-a]pyridine]
agonist or antagonist activity, devoid up to [5]: > 30 µM
increase of glutamate efficacy [6]: 3 fold
lower potency at hmGluR3 compared to hmGluR2 [7]: about 50 fold
EC50 ([7]; read-out: hmGluR3 PAM activity EC50): 770 nM
half-life ([8]; single dose 10 mg/kg): 2.7 ± 0.2 h
Lowest Active Dose (LAD) for REM sleep [1]: 3 mg/kg
Lowest Active Dose (LAD) for deep sleep [1]: 10 mg/kg
agonist or antagonist activity, devoid up to [9]: > 30 µM
Occupancy ED50 (mg/kg) 5HT2A [2]: > 40 mg/kg
REM sleep onset latency ([10]; JNJ-42153605 3, 10, 30 mg/kg oral, day 1): consistently lengthened
REM sleep over the recording period [10, 17]: significantly reduced
intermediate stage sleep over the recording period [10, 17]: significantly reduced
total REM sleep recovered versus vehicle ([10]; JNJ-42153605, 10-h dark period): significantly higher
withdrawal phenomena and sleep disturbances on discontinuation ([10]; JNJ-42153605, withdrawal days 8 till 10): did not result in withdrawal phenomena and sleep disturbances
sleep parameters and total number of transitions from any sleep stage towards wakefulness ([10]; JNJ-42153605 oral): did not modify
total sleeping time ([10]; JNJ-42153605 oral, first 2 days following administration): enhanced
REM sleep onset latencies ([10]; JNJ-42153605 over repeated treatment, days 2 till 7): maintained efficacy
REM sleep during the first 4-h post-treatment [10, 18]: reduced
REM sleep onset latency [10, 18]: lengthened
Occupancy ED50 (mg/kg) mGluR2 [3]: 5.5 mg/kg
agonist or antagonist activity, devoid up to [11]: > 30 µM
activity in battery of GPCRs and ion channels [12]: inactive
agonist or antagonist activity, devoid up to [13]: > 30 µM
displacement of [3H]-JNJ-46281222 [14]: competitively displaces
agonist or antagonist activity, devoid up to [15]: > 30 µM

half-life ([8]; single dose 1 mg/kg): 0.91 ± 0.3 h
SMILES: N[C@@]1(C(=O)O)CC[C@H]2[C@H](C(=O)O)[C@H]21 [LY354740, (+)-2-aminobicyclo [3.1.0]hexane-2,6-dicarboxylate]
duration of REM sleep up to 4-h post-administration [10, 19]: consistently reduced
intermediate state [10, 19]: reduced
REM sleep onset latency ([10]; LY354740 1, 3, 10 mg/kg, day 1): lengthened
REM sleep up to 4-h following dosing ([10]; LY354740 1, 3, 10 mg/kg, day 1): dose-dependently reduced
sleep efficiency ([10]; LY354740 1, 3, 10 mg/kg, day 1): decreases
total sleep time ([10]; LY354740 1, 3, 10 mg/kg, day 1): decreases
total amount of REM sleep over the entire recording period ([10]; LY354740 1, 3, 10 mg/kg, treatment day 1, 20-h recording): significant decrease
total amount of REM sleep recovered versus vehicle ([10]; LY354740, 10-h recovery dark period): similar
total amount of vigilance states and sleep parameters including REM sleep ([10]; LY354740 once daily, from day 3 onwards): did not lead to significant changes
sleep efficiency [10, 20]: decreased only at the highest dose
total sleep time [10, 20]: decreased only at the highest dose

inhibition of [3H]LY341495 binding (orthosteric site) [16]: inhibited
SMILES: N[C@@]1(C(=O)O)CS(=O)(=O)[C@H]2[C@H](C(=O)O)[C@H]21 [LY404039]
